{"source": "patent US9540328B2", "about": "“(−)-(2R,3S)-2-amino-3-hydroxy-3-pyridin-4-yl-1-pyrrolidin-1-yl-propan-1-one (L)-(+) tartrate salt, its method of production and use” (Allergan, Inc., priority 2013, dated 2017)", "assay_type_in_all_cases": "physicochemical", "key": {"[1]": {"assay": "Salt form optimization study: hygroscopicity / deliquescence of salts", "from_the_text": "In another salt from optimization study for the dibasic drug molecule (+/−)-erythro-2-amino-3-hydroxy-3-pyridin-4-yl-1-pyrrolidin-1-yl-propan-1-one, the dihydrochloride was the first salt prepared and characterized. […] The following counterions were used: sulfuric acid, 1-hydroxy-2-naphthoic acid, methanesulfonic acid, naphthalene-2-sulfonic acid, benzenesulfonic acid, (L-) glutamic acid, malonic acid, citric acid, (−)-L-malic acid, lactic acid, ascorbic acid, and acetic acid. Of these the pursuance of mono-acetate, the naphthalene-2-sulfonate and the 1-hydroxy-2-naphthoate salts were recommended. […] The latter salt also represented a large counterion compared to the base and, especially at high doses, this was perceived as a definite disadvantage."}, "[2]": {"assay": "Dynamic Vapor Sorption (DVS)"}, "[3]": {"assay": "TG-FTIR thermal decomposition"}, "[4]": {"assay": "Differential Scanning Calorimetry (DSC) degradation"}, "[5]": {"details": "sample of FIG. 11 (crystalline salt)"}}, "note": "Counter-ions that a name gives are not always drawn."}
{"smiles": "N[C@@H](C(=O)N1CCCC1)[C@@H](O)c1ccncc1", "note": "(racemic) [dihydrochloride, (+/−)-erythro-2-amino-3-hydroxy-3-pyridin-4-yl-1-pyrrolidin-1-yl-propan-1-one]", "values": [{"measurement": "hygroscopicity", "setting": "[1]", "value": "hygroscopic"}]}
{"smiles": "N[C@@H](C(=O)N1CCCC1)[C@@H](O)c1ccncc1.O=C(O)C(O)C(O)C(=O)O", "note": "[(−)-(2R,3S)-2-amino-3-hydroxy-3-pyridin-4-yl-1-pyrrolidin-1-yl-propan-1-one (L)-(+) tartrate]", "values": [{"measurement": "hygroscopicity", "setting": "[2]; amorphous sample, FIG. 17", "value": "very hygroscopic"}, {"measurement": "deliquescence", "setting": "[2]; amorphous sample, FIG. 17, visually confirmed", "value": "deliquescent"}, {"measurement": "hygroscopicity", "setting": "[2]; [5]", "value": "very hygroscopic"}, {"measurement": "relative humidity above which water uptake occurs", "setting": "[2]; [5]", "value": "above 80 % r.h."}, {"measurement": "deliquescence", "setting": "[2]; sample of FIG. 11 (crystalline salt), visually confirmed", "value": "deliquescent"}, {"measurement": "degradation temperature", "setting": "[3]; amorphous sample, FIG. 15", "value": "above 160 °C"}, {"measurement": "decomposition temperature", "setting": "[3]; sample of FIG. 9 (crystalline salt)", "value": "above 160 °C"}, {"measurement": "overlapping melting and degradation temperature", "setting": "[4]; DSC first scan, sample of FIG. 10 (crystalline salt)", "value": "~160", "unit": "°C"}, {"measurement": "degradation temperature", "setting": "[4]; DSC, amorphous sample, FIG. 16", "value": "above 118 °C"}]}
{"smiles": "N[C@@H](C(=O)N1CCCC1)[C@@H](O)c1ccncc1", "note": "(racemic) [acetate salt, (+/−)-erythro-2-amino-3-hydroxy-3-pyridin-4-yl-1-pyrrolidin-1-yl-propan-1-one]", "values": [{"measurement": "relative humidity at which the salt deliquesced", "setting": "[1]", "value": 51, "unit": "% RH"}]}
